{"source": "patent US20110262895A1", "about": "“METHODS FOR THE DIAGNOSIS OF VARICELLA ZOSTER VIRUS INFECTION” (priority 2008, published 2011)", "key": {"CMV": {"test_system": "CMV", "settings": "cited from earlier work"}, "VZV": {"test_system": "VZV", "settings": "requires VZV thymidine kinase for phosphorylation; cited from earlier work"}, "HSV": {"test_system": "HSV", "settings": "cited from earlier work"}, "[1]": {"test_system": "varicella-zoster virus (VZV) DNA in saliva", "experiment": "Salivary VZV DNA by real-time PCR in herpes zoster patients treated with valacyclovir", "format": "in vivo, human", "settings": "oral valacyclovir 1 g 3 times daily for 7 days, 50 patients with follow-up", "protocol": "Methods. All human-study protocols were approved by the Committee for the Protection of Human Subjects of the Lyndon B. Johnson Space Center (control subjects) and by the Institutional Review Board of the University of Texas Health Sciences Center (patients with herpes zoster). Informed consent was obtained from all subjects. The 54 patients with herpes zoster consisted of 29 women (21-82 years old) and 25 men (35-79 years old) (Table 2). All patients with herpes zoster were treated with oral valacyclovir (1 g 3 times daily) for 7 consecutive days. Pain was described by all patients on a scale of 0 (no pain) to 10 (worst pain) (Jacox et al., 1994). […]\nSaliva samples from all subjects were obtained by having subjects suck on a cotton plug for 1-2 min, after which the saturated cotton was placed in a salivette tube (Sarstedt). […] Quantitative real-time polymerase chain reaction (PCR) was performed in a TaqMan 7700 sequence detector (Applied Biosystems) using fluorescence-based simultaneous amplification and product detection.\nPrimers and probes specific for VZV, herpes simplex virus (HSV)-1 and GAPDH DNA sequences have been described elsewhere (Mehta et al., 2004; Cohrs et al., 2000). […] At the height of CPE, cells were analyzed by PCR with HSV-1-specific and VZV-specific primers (Mehta et al., 2004; Cohrs et al., 2000) and by immunohistochemistry for viral antigens."}, "[2]": {"experiment": "Pain score (0-10) in herpes zoster patients treated with valacyclovir", "format": "in vivo, human", "settings": "oral valacyclovir 1 g 3 times daily for 7 days, 50 patients with follow-up", "protocol": "Methods. All human-study protocols were approved by the Committee for the Protection of Human Subjects of the Lyndon B. Johnson Space Center (control subjects) and by the Institutional Review Board of the University of Texas Health Sciences Center (patients with herpes zoster). Informed consent was obtained from all subjects. The 54 patients with herpes zoster consisted of 29 women (21-82 years old) and 25 men (35-79 years old) (Table 2). All patients with herpes zoster were treated with oral valacyclovir (1 g 3 times daily) for 7 consecutive days. Pain was described by all patients on a scale of 0 (no pain) to 10 (worst pain) (Jacox et al., 1994). Six control subjects consisted of 5 women (24-64 years old) and 1 person with chronic pain due to malignancy or non-VZV inflammatory disease. Fourteen additional healthy control subjects consisted of 9 men and 5 women (34-70 years old). Three saliva samples were collected at weekly intervals from all 6 control subjects with chronic pain and from the 14 healthy control subjects."}}, "data": [{"smiles": "CC#Cc1cn([C@@H]2O[C@H](CO)[C@@H](O)[C@@H]2O)c(=O)[nH]c1=O", "note": "[882C]", "values": [{"measurement": "activity against CMV", "setting": "CMV", "result": "without any significant activity"}, {"measurement": "activity against VZV", "setting": "VZV", "result": "specific activity against VZV"}, {"measurement": "activity against HSV", "setting": "HSV", "result": "without any significant activity"}]}, {"smiles": "CC(C)[C@H](N)C(=O)OCCOCn1cnc2c(=O)[nH]c(N)nc21", "note": "[valacyclovir]", "values": [{"measurement": "patients in whom VZV DNA disappeared from saliva", "setting": "[1]; 2-week study period", "result": 82, "unit": "%"}, {"measurement": "patients in whom virus DNA copy numbers decreased in saliva", "setting": "[1]; 14-day study period", "result": 94, "unit": "%"}, {"measurement": "patients in whom pain decreased", "setting": "[2]; 14-day study period", "result": 86, "unit": "%"}, {"measurement": "patients in whom pain disappeared", "setting": "[2]; end of 2-week study period", "result": 74, "unit": "%"}]}]}
